This is an account of results in patent publication US8685999B2, “Beta carboline sulphonylurea derivatives as EP4 receptor antagonists” (Merck Sharp & Dohme Corp., priority 2008, dated 2014).

The structures appear in SMILES notation. Where two headings read alike, the source gives them in different places.

This assay has as its target T1, EP4 (Homo sapiens, UniProt P35408).
T1 construct: expressed in transfected cells; membranes prepared by differential centrifugation
The assay can be described thus: Prostanoid receptor binding assay (radioligand displacement binding assay). How it is done: Prostanoid receptor cDNAs corresponding to full length coding sequences are subcloned into the appropriate sites of mammalian expression vectors and transfected into HEK 293(ebna) cells. HEK 293(ebna) cells expressing the individual cDNAs are grown under selection and individual colonies are isolated after 2-3 weeks of growth using the cloning ring method and subsequently expanded into clonal cell lines.
Transfected HEK 293(ebna) cells are maintained in culture, harvested and membranes are prepared by differential centrifugation, following lysis of the cells in the presence of protease inhibitors, for use in receptor binding assays. Prostanoid receptor binding assays (for DP1, DP2 (CRTH2), EP1, EP2, EP3-III, EP4, FP, IP, and TP) are performed in 10 mM MES/KOH (pH 6.0) (EPs, FP and TP) or 10 mM HEPES/KOH (pH 7.4) (DPs and IP), containing 1 mM EDTA, 2.5-30 mM divalent cation and the appropriate radio-ligand. Synthetic compounds are added in DMSO which is kept constant at 1% (v/v) in all incubations. The reaction is initiated by addition of membrane protein. Non-specific binding is determined in the presence of 10 μM of the corresponding non-radioactive prostanoid. Incubations are conducted for 60-120 min at room temperature or 30° C. and terminated by rapid filtration. Specific binding is calculated by subtracting non specific binding from total binding. The residual specific binding at each ligand concentration is calculated and expressed as a function of ligand concentration in order to construct sigmoidal concentration-response curves. The binding affinity of the compounds is determined by calculating the equilibrium inhibition constant (Ki) from the equation Ki=InPt/1+[radio-ligand]/Kd where Kd is the equilibrium dissociation constant for the radio-ligand:receptor interaction and InPt is the inflection point of the dose-response curves.
Abramovitz, M. et al., Biochem, Biophys. Acta, 2000, 1483, pp. 285.

[1] abbreviates: column marked X when IC50 < 1, read-out: IC50 (nm) X < 1.
Setting [2] is: radioligand displacement binding assay, read-out: IC50.

T1 sequence (P35408 whole entry): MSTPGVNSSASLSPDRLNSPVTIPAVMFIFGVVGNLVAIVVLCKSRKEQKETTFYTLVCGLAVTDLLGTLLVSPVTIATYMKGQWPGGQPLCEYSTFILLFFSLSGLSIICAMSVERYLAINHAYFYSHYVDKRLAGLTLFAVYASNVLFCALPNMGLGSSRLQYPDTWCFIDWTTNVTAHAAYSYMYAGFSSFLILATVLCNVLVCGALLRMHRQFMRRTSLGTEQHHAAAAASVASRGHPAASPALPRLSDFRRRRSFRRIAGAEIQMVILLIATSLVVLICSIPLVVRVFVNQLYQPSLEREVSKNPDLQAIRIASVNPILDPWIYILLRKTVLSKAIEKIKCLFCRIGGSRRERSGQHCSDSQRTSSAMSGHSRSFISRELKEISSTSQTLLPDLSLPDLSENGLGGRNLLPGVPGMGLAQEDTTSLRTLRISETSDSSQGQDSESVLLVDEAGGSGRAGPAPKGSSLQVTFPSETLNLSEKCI

As to `COc1cccc(OC)c1S(=O)(=O)NC(=O)NC1(Cc2ccc(-n3c4c(c5cc(-c6ccccc6)ccc53)CCN(C)C4=O)cc2)CC1` [Example 1-30, 2,6-dimethoxy-N-[({1-[4-(2-methyl-1-oxo-6-phenyl-1,2,3,4-tetrahydro-9H-beta-carbolin-9-yl)benzyl]cyclopropyl}amino)carbonyl]benzenesulfonamide], the IC50 under setting [1] is less than 1 nM.

Consider `CN1CCc2c(n(-c3ccc(CCNC(=O)NS(=O)(=O)c4ccc(Cl)cc4)cc3)c3ccc(S(C)(=O)=O)cc23)C1=O` [Example 1-31, 4-chloro-N-{[(2-{4-[2-methyl-6-(methylsulfonyl)-1-oxo-1,2,3,4-tetrahydro-9H-beta-carbolin-9-yl]phenyl}ethyl)amino]carbonyl}benzenesulfonamide], for which the IC50 under setting [1] is less than 1 nM.

Consider `CN1CCc2c(n(-c3ccc(CCNC(=O)NS(=O)(=O)c4ccc(Cl)cc4)cc3)c3cc(S(C)(=O)=O)ccc23)C1=O` [Example 1-32, 4-chloro-N-{[(2-{4-[2-methyl-7-(methylsulfonyl)-1-oxo-1,2,3,4-tetrahydro-9H-beta-carbolin-9-yl]phenyl}ethyl)amino]carbonyl}benzenesulfonamide], for which the IC50 (column marked X when IC50 between 1 and 5, read-out: IC50 (nm) 1 < X < 5) was 1 to 5 nM; the IC50 under setting [2] was 1 to 5 nM.

Consider `CN1CCc2c(n(-c3ccc(CCNC(=O)NS(=O)(=O)c4ccc(Cl)cc4)cc3)c3cccc(S(C)(=O)=O)c23)C1=O` [Example 1-33, 4-chloro-N-{[(2-{4-[2-methyl-5-(methylsulfonyl)-1-oxo-1,2,3,4-tetrahydro-9H-beta-carbolin-9-yl]phenyl}ethyl)amino]carbonyl}benzenesulfonamide], for which the IC50 (column marked X when IC50 > 5, read-out: IC50 (nm) X > 5) was more than 5 nM and the IC50 under setting [2] was more than 5 nM.

As to `CN1CCc2c(n(-c3ccc(CC4(NC(=O)NS(=O)(=O)c5ccc(Cl)cc5)CC4)cc3)c3ccc(S(C)(=O)=O)cc23)C1=O` [Example 1-34, 4-chloro-N-{[(1-{4-[2-methyl-6-(methylsulfonyl)-1-oxo-1,2,3,4-tetrahydro-9H-beta-carbolin-9-yl]benzyl}cyclopropyl)amino]carbonyl}benzenesulfonamide], under setting [1], the IC50 was less than 1 nM.

Take `CN1CCc2c(n(-c3ccc(CCNC(=O)NS(=O)(=O)c4ccc(Cl)cc4)cc3)c3ccc(-c4ccc(S(C)(=O)=O)cc4)cc23)C1=O` [Example 1-35, 4-chloro-N-({[2-(4-{2-methyl-6-[4-(methylsulfonyl)phenyl]-1-oxo-1,2,3,4-tetrahydro-9H-beta-carbolin-9-yl}phenyl)ethyl]amino}carbonyl)benzenesulfonamide]: under setting [1], the IC50 was less than 1 nM.

`CN1CCc2c(n(-c3ccc(CCNC(=O)NS(=O)(=O)c4ccc(Cl)cc4)cc3)c3ccc(-c4cccc(S(C)(=O)=O)c4)cc23)C1=O` [Example 1-36, 4-chloro-N-({[2-(4-{2-methyl-6-[3-(methylsulfonyl)phenyl]-1-oxo-1,2,3,4-tetrahydro-9H-beta-carbolin-9-yl}phenyl)ethyl]amino}carbonyl)benzenesulfonamide]: the IC50 under setting [1] is less than 1 nM.

Turning to `CN1CCc2c(n(-c3ccc(CC4(NC(=O)NS(=O)(=O)c5ccc(Cl)cc5)CC4)cc3)c3ccc(S(=O)(=O)c4ccccc4)cc23)C1=O` [Example 1-37, 4-chloro-N-{[(1-{4-[2-methyl-1-oxo-6-(phenylsulfonyl)-1,2,3,4-tetrahydro-9H-beta-carbolin-9-yl]benzyl}cyclopropyl)amino]carbonyl}benzenesulfonamide], the IC50 under setting [1] was less than 1 nM.

Consider `CN1CCc2c(n(-c3ccc(CC4(NC(=O)NS(=O)(=O)c5ccc(Cl)cc5)CC4)cc3)c3ccc(C4CC4)cc23)C1=O` [Example 2-1, 4-chloro-N-[({1-[4-(6-cyclopropyl-2-methyl-1-oxo-1,2,3,4-tetrahydro-9H-beta-carbolin-9-yl)benzyl]cyclopropyl}amino)carbonyl]benzenesulfonamide], for which, under setting [1], the IC50 is less than 1 nM.

On to `CN1CCc2c(n(-c3ccc(CCNC(=O)NS(=O)(=O)c4ccc(Cl)cc4)cc3)c3ccc(C4CC4)cc23)C1=O` [Example 2-2, 4-chloro-N-[({2-[4-(6-cyclopropyl-2-methyl-1-oxo-1,2,3,4-tetrahydro-9H-beta-carbolin-9-yl)phenyl]ethyl}amino)carbonyl]benzenesulfonamide], for which the IC50 under setting [1] is less than 1 nM.

In the case of `CN1CCc2c(n(-c3ccc(CCNC(=O)NS(=O)(=O)c4ccc(Cl)cc4)cc3)c3cccc(C4CC4)c23)C1=O` [Example 2-3, 4-chloro-N-[({2-[4-(5-cyclopropyl-2-methyl-1-oxo-1,2,3,4-tetrahydro-9H-beta-carbolin-9-yl)phenyl]ethyl}amino)carbonyl]benzenesulfonamide], under setting [1], the 50% inhibitory concentration (IC50) was less than 1 nM.

In the case of `CN1CCc2c(n(-c3ccc(CCNC(=O)NS(=O)(=O)c4ccc(Cl)cc4)cc3)c3cc(C4CC4)ccc23)C1=O` [Example 2-4, 4-chloro-N-[({2-[4-(7-cyclopropyl-2-methyl-1-oxo-1,2,3,4-tetrahydro-9H-beta-carbolin-9-yl)phenyl]ethyl}amino)carbonyl]benzenesulfonamide], the IC50 under setting [1] was less than 1 nM.

For the compound `Cc1nnc(-c2ccc3c(c2)c2c(n3-c3ccc(CC4(NC(=O)NS(=O)(=O)c5ccc(Cl)cc5)CC4)cc3)C(=O)N(C)CC2)o1` [Example 3-1, sodium[(4-chlorophenyl)sulfonyl]{[(1-{4-[2-methyl-6-(5-methyl-1,3,4-oxadiazol-2-yl)-1-oxo-1,2,3,4-tetrahydro-9H-beta-carbolin-9-yl]benzyl}cyclopropyl)amino]carbonyl}azanide], the IC50 under setting [1] was less than 1 nM.

Turning to `COC(=O)c1ccc2c(c1)c1c(n2-c2ccc(CC3(NC(=O)NS(=O)(=O)c4ccc(Cl)cc4)CC3)cc2)C(=O)N(C)CC1` [Example 3-2, methyl 9-[4-({1-[({[(4-chlorophenyl)sulfonyl]amino}carbonyl)amino]cyclopropyl}methyl)phenyl]-2-methyl-1-oxo-2,3,4,9-tetrahydro-1H-beta-carboline-6-carboxylate], the IC50 under setting [1] was less than 1 nM.

As to `CN1CCc2c(n(-c3ccc(CC4(NC(=O)NS(=O)(=O)c5ccc(Cl)cc5)CC4)cc3)c3ccc(C(=O)O)cc23)C1=O` [Example 3-3, 9-[4-({1-[({[(4-chlorophenyl)sulfonyl]amino}carbonyl)amino]cyclopropyl}methyl)phenyl]-2-methyl-1-oxo-2,3,4,9-tetrahydro-1H-beta-carboline-6-carboxylic acid], the IC50 under setting [1] was less than 1 nM.

Take `CN1CCc2c(n(-c3ccc(CC4(NC(=O)NS(=O)(=O)c5ccc(Cl)cc5)CC4)cc3)c3ccc(-c4ccn[nH]4)cc23)C1=O` [Example 3-4, 4-chloro-N-{[(1-{4-[2-methyl-1-oxo-6-(1H-pyrazol-5-yl)-1,2,3,4-tetrahydro-9H-beta-carbolin-9-yl]benzyl}cyclopropyl)amino]carbonyl}benzenesulfonamide]: the IC50 under setting [1] is less than 1 nM.

Regarding `CN1CCc2c(n(-c3ccc(CC4(NC(=O)NS(=O)(=O)c5ccc(Cl)cc5)CC4)cc3)c3ccc(-c4nnc(-c5ccccc5)o4)cc23)C1=O` [Example 3-5, 4-chloro-N-{[(1-{4-[2-methyl-1-oxo-6-(5-phenyl-1,3,4-oxadiazol-2-yl)-1,2,3,4-tetrahydro-9H-beta-carbolin-9-yl]benzyl}cyclopropyl)amino]carbonyl}benzenesulfonamide], the IC50 under setting [1] was less than 1 nM.
